The molecules below were run on CMV (assay: Viral qPCR assay, CMV). Details: Human betaherpesvirus 5, 72 h, infected cells, viral genome copies by qPCR normalized to PPIA, read-out: CMV Cell EC50.
Assay type: cell-based
Protocol: (§1) MRC5 cells, Vero cells, and MeWo cells were obtained from ATCC, and were maintained at 37° C./5% CO2/90% relative humidity in Minimal Essential Medium with 10% fetal bovine serum, […] L-glutamine, 100 units/ml penicillin and 100 ug/ml streptomycin. Assay plates were prepared by dispensing compounds dissolved in DMSO into wells of 384 well collagen-coated plates using an ECHO acoustic dispenser. Each test compound was tested in a 10-point, serial 3-fold dilution. Controls included uninfected cells and infected cells treated only with DMSO. Assays were initiated by mixing selected cells, in suspension, with virus, and dispensing 50 μl/well infected cells to pre-plated compounds. Plates were incubated at 37° C./5% CO2/90% relative humidity for ˜72 hrs to permit genomic replication, and infected cells were lysed by the addition of an equal volume of lysis buffer (10 mM Tris-HCl, pH8, 50 mM KCl, 2 mM MgCl2, 0.45% NP-40, 0.45% Tween-20, and 100 µg/ml proteinase K). An aliquot of the lysate was then transferred to a 384-well PCR plate and incubated at 56° C. for 1 hour, and then at 95° C. for 10 minutes. Levels of the selected viral gene and of the cellular control, PPIA, were measured in separate 10 μl qPCR assays using TaqMan® Gene Expression Master Mix (Applied Biosystems), and an 7900HT Fast Real-Time PCR System with 384-Well Block Module. 7-point, serial 10-fold dilutions of a plasmid standard were run on each plate to generate a standard curve, and genome copies numbers were calculated by plotting experimental Ct onto linear regression of the standard curve. Viral genome copy numbers were normalized by cellular control copy number, and compound effects were normalized to the window defined by the controls. Calculated % effects were fit using a 4-parameter algorithm, and EC50 was reported.

Going from `Cc1nc2cc(-c3cnccn3)c(O[C@H]3CCN4C(=O)OC[C@@H]4C3)cc2c(=O)n1Cc1ccc(Cl)cc1` [Example 122] to `Cc1ccc(-c2cc3nc(C)n(Cc4ccc(Cl)cc4)c(=O)c3cc2O[C@H]2CCN3C(=O)OC[C@@H]3C2)nn1` [Example 110], the EC50 falls from 0.382 µM to 0.2 µM (1.9-fold). The second is the more potent here.

In the case of `Cc1nc2cc(-c3cc4ncccn4n3)c(O[C@H]3CCN4C(=O)OC[C@@H]4C3)cc2c(=O)n1Cc1ccc(Cl)cc1` [Example 100], the EC50 is reported as 0.063 µM.

Same assay, conditions: infected cells, ~72 hrs, viral genome copies by qPCR normalized to PPIA; read-out: CMV Cell EC50

Going from `O=C1OC[C@@H]2C[C@@H](Oc3cc4c(=O)n(Cc5ccc(Cl)cc5)ccc4cn3)CCN12` [Example 2] to `COc1ncc(-c2cc3nc(C)n(Cc4ccc(Cl)cc4)c(=O)c3cc2O[C@H]2CCN3C(=O)OC[C@@H]3C2)cn1` [Example 5], the EC50 falls from 0.872 µM to 0.107 µM (8.1-fold). The second is the more potent here.

`Cc1nc2cc(CC(C)(C)O)c(O[C@H]3CCN4C(=O)OC[C@@H]4C3)cc2c(=O)n1Cc1ccc(Cl)cc1` [Example 3] and `Cc1nc2cc(-c3cnn(C(F)F)c3)c(O[C@H]3CCN4C(=O)OC[C@@H]4C3)cc2c(=O)n1Cc1ccc(Cl)cc1` [Example 4] are within 1.5-fold of each other in EC50: 0.037 µM for the first, 0.051 µM for the second.

`Cc1nc2cc(-c3cc4n(n3)C(C(F)(F)F)CN(C)C4)c(O[C@H]3CCN4C(=O)OC[C@@H]4C3)cc2c(=O)n1Cc1ccc(Cl)cc1` (single isomer, unassigned) [Example 152] gave an EC50 of 0.159 µM.

The molecules below were run on HSV2 (assay: Viral qPCR assay, HSV2). Details: Human alphaherpesvirus 2, 72 h, infected cells, viral genome copies by qPCR normalized to PPIA, read-out: HSV2 Cell EC50.
Assay type: cell-based
Protocol: as §1

Going from `Cc1nc2cc(-c3cnccn3)c(O[C@H]3CCN4C(=O)OC[C@@H]4C3)cc2c(=O)n1Cc1ccc(Cl)cc1` [Example 122] to `Cc1ccc(-c2cc3nc(C)n(Cc4ccc(Cl)cc4)c(=O)c3cc2O[C@H]2CCN3C(=O)OC[C@@H]3C2)nn1` [Example 110], the EC50 falls from 0.543 µM to 0.133 µM (4.1-fold). The second is the more potent here.

For `Cc1nc2cc(-c3cc4ncccn4n3)c(O[C@H]3CCN4C(=O)OC[C@@H]4C3)cc2c(=O)n1Cc1ccc(Cl)cc1` [Example 100], the EC50 was 0.043 µM.

Same assay, conditions: infected cells, ~72 hrs, viral genome copies by qPCR normalized to PPIA; read-out: HSV2 Cell EC50

Compared with `O=C1OC[C@@H]2C[C@@H](Oc3cc4c(=O)n(Cc5ccc(Cl)cc5)ccc4cn3)CCN12` [Example 2], `COc1ncc(-c2cc3nc(C)n(Cc4ccc(Cl)cc4)c(=O)c3cc2O[C@H]2CCN3C(=O)OC[C@@H]3C2)cn1` [Example 5] is 12-fold lower in EC50: 1.05 µM for the first, 0.085 µM for the second. The second is the more potent here.

Going from `Cc1nc2cc(CC(C)(C)O)c(O[C@H]3CCN4C(=O)OC[C@@H]4C3)cc2c(=O)n1Cc1ccc(Cl)cc1` [Example 3] to `Cc1nc2cc(-c3cnn(C(F)F)c3)c(O[C@H]3CCN4C(=O)OC[C@@H]4C3)cc2c(=O)n1Cc1ccc(Cl)cc1` [Example 4], the EC50 falls from 0.055 µM to 0.026 µM (2.1-fold). The second is the more potent here.

`Cc1nc2cc(-c3cc4n(n3)C(C(F)(F)F)CN(C)C4)c(O[C@H]3CCN4C(=O)OC[C@@H]4C3)cc2c(=O)n1Cc1ccc(Cl)cc1` (single isomer, unassigned) [Example 152] gave an EC50 of 0.226 µM.

Each molecule was assayed against varicella zoster virus DNA polymerase (Varicella-zoster virus (strain Dumas) (HHV-3) (Human herpesvirus 3), UniProt P09252) (assay: VZV polymerase assay (AlphaLISA)). Details: VZV polymerase 0.4 nM, 30 min pre-incubation, 60 minute at 37° C.
Assay type: biochemical
Protocol: (§2) Human cytomegalovirus and varicella zoster virus DNA polymerases were expressed via baculovirus vector in SF21 cells and purified. Heterodimeric nucleic acid substrate used in the herpesvirus polymerase reactions were generated by annealing a 59-mer template to a 17-mer digoxigenin-labeled primer. Polymerase (HCMV final concentration of 0.2 nM; VZV final concentration of 0.4 nM) was combined with an inhibitor compound or DMSO in assay buffer (10 mM HEPES, pH 7.5, 25 mM KCl, 25 mM NaCl, 5 mM MgCl2, 5% glycerol, 0.67 mg/ml bovine serum albumin, and 1 mM tris(2-carboxyethyl)phosphine)), and this mixture was pre-incubated for 30 minutes at room temperature in 384-well microtiter plates. The polymerization reaction was initiated by the addition of template/primer substrate (final concentration: 1.6 nM), and dNTPs (final concentration: 24 nM dCTP, 24 nMdGTP, 16 nM dATP, 16 nM dTTP, and 0.8 nM biotin-dUTP). After a 60 minute incubation period at 37° C., the reactions were terminated using quench buffer (25 mM HEPES pH 7.5, 100 mM NaCl, 0.25% Tween-20, 12 mM EDTA, and 1 mg/ml bovine serum albumin). Incorporation of biotinylated UTP was detected with 2.5-5 μg/mL anti-DIG AlphaLISA acceptor beads and 5-10 μg/mL streptavidin AlphaLISA donor beads (PerkinElmer). Compound effects were normalized to the window defined by the controls (DMSO only and pre-quenched wells), and were fit using a 4-parameter algorithm to report an IC50.

Compared with `CN1CCN(c2ccc3ccn(Cc4ccc(Cl)cc4)c(=O)c3c2)CC1` [Example 21], `O=C1OC[C@@H]2C[C@@H](Oc3cc4c(=O)n(Cc5ccc(Cl)cc5)ccc4cn3)CCN12` [Example 2] is 170-fold lower in IC50: 7.33 µM for the first, 0.044 µM for the second.

First: Cc1nc2cc(CC(C)(C)O)c(O[C@H]3CCN4C(=O)OC[C@@H]4C3)cc2c(=O)n1Cc1ccc(Cl)cc1 [Example 3]
Second: Cc1nc2c(CC(C)(C)O)cc(O[C@H]3CCN4C(=O)OC[C@@H]4C3)cc2c(=O)n1Cc1ccc(Cl)cc1 [Example 67]
The IC50 of the first is 110-fold lower: 0.0005 µM for the first, 0.053 µM for the second.

Going from `Cc1nc2cc(-c3cnn(C(F)F)c3)c(O[C@H]3CCN4C(=O)OC[C@@H]4C3)cc2c(=O)n1Cc1ccc(Cl)cc1` [Example 4] to `COc1ccc(-c2cc3ncn(Cc4ccc(Cl)cc4)c(=O)c3cc2O[C@H]2CCN3C(=O)OC[C@@H]3C2)cn1` [Example 57], the IC50 rises from 0.0031 µM to 0.043 µM (14-fold).

Compared with `C[C@@H]1CN(C)CCN1c1cc(CC(C)(C)O)c2ncn(Cc3ccc(Cl)cc3)c(=O)c2c1` [Example 55], `C[C@@H]1CN(C)CCN1c1cc2c(=O)n(Cc3ccc(Cl)cc3)cnc2cc1-c1cnn(C(F)F)c1` [Example 50] is 3-fold higher in IC50: 0.139 µM for the first, 0.422 µM for the second. The first is the more potent here.

First: C[C@@H]1CN(C2CCOCC2)CCN1c1ccc2ncn(Cc3ccc(Cl)cc3)c(=O)c2c1 [Example 43]
Second: CC(=O)N1CC[C@@H](Oc2cnc3ccn(Cc4ccc(Cl)cc4)c(=O)c3c2)C[C@H]1C (single isomer, unassigned) [Example 35]
The IC50 of the first is 60-fold higher: 4.96 µM for the first, 0.082 µM for the second.

For `CC(c1ccc(Cl)cc1)n1ccc2ncc(O[C@H]3CCN4C(=O)OC[C@@H]4C3)cc2c1=O` (single isomer, unassigned) [Example 30], the IC50 was 0.157 µM.

What follows are molecules tested against Human cytomegalovirus DNA polymerase (Human cytomegalovirus (strain AD169) (HHV-5) (Human herpesvirus 5), UniProt P08546) (assay: CMV polymerase assay (AlphaLISA)). Details: HCMV polymerase 0.2 nM, 30 min pre-incubation, 60 minute at 37° C.
Assay type: biochemical
Protocol: as §2

First: CN1CCN(c2ccc3ccn(Cc4ccc(Cl)cc4)c(=O)c3c2)CC1 [Example 21]
Second: O=C1OC[C@@H]2C[C@@H](Oc3cc4c(=O)n(Cc5ccc(Cl)cc5)ccc4cn3)CCN12 [Example 2]
The IC50 of the first is 120-fold higher: 5.85 µM for the first, 0.049 µM for the second. The second is the more potent here.

Going from `Cc1nc2cc(CC(C)(C)O)c(O[C@H]3CCN4C(=O)OC[C@@H]4C3)cc2c(=O)n1Cc1ccc(Cl)cc1` [Example 3] to `Cc1nc2c(CC(C)(C)O)cc(O[C@H]3CCN4C(=O)OC[C@@H]4C3)cc2c(=O)n1Cc1ccc(Cl)cc1` [Example 67], the IC50 rises from 0.0024 µM to 0.022 µM (9.2-fold). The first is the more potent here.

Going from `Cc1nc2cc(-c3cnn(C(F)F)c3)c(O[C@H]3CCN4C(=O)OC[C@@H]4C3)cc2c(=O)n1Cc1ccc(Cl)cc1` [Example 4] to `COc1ncc(-c2cc3nc(C)n(Cc4ccc(Cl)cc4)c(=O)c3cc2O[C@H]2CCN3C(=O)OC[C@@H]3C2)cn1` [Example 5], the IC50 rises from 0.0011 µM to 0.015 µM (14-fold).

First: C[C@@H]1CN(C)CCN1c1cc(CC(C)(C)O)c2ncn(Cc3ccc(Cl)cc3)c(=O)c2c1 [Example 55]
Second: C[C@@H]1CN(C)CCN1c1cc2c(=O)n(Cc3ccc(Cl)cc3)cnc2cc1-c1cnn(C(F)F)c1 [Example 50]
The IC50 of the first is 5-fold lower: 0.109 µM for the first, 0.545 µM for the second.

Compared with `C[C@@H]1CN(C2CCOCC2)CCN1c1ccc2ncn(Cc3ccc(Cl)cc3)c(=O)c2c1` [Example 43], `CC(=O)N1CC[C@@H](Oc2cnc3ccn(Cc4ccc(Cl)cc4)c(=O)c3c2)C[C@H]1C` (single isomer, unassigned) [Example 35] is 150-fold lower in IC50: 9.83 µM for the first, 0.066 µM for the second. The second is the more potent here.

Going from `COc1ccc(-c2cc3ncn(Cc4ccc(Cl)cc4)c(=O)c3cc2O[C@H]2CCN3C(=O)OC[C@@H]3C2)cn1` [Example 57] to `CC(c1ccc(Cl)cc1)n1ccc2ncc(O[C@H]3CCN4C(=O)OC[C@@H]4C3)cc2c1=O` (single isomer, unassigned) [Example 30], the IC50 rises from 0.043 µM to 0.207 µM (4.8-fold).

What follows are molecules tested on HSV1 (assay: Viral qPCR assay, HSV1). Details: Human alphaherpesvirus 1, 72 h, infected cells, viral genome copies by qPCR normalized to PPIA, read-out: HSV1 Cell EC50.
Assay type: cell-based
Protocol: as §1

Going from `Cc1nc2cc(-c3cnccn3)c(O[C@H]3CCN4C(=O)OC[C@@H]4C3)cc2c(=O)n1Cc1ccc(Cl)cc1` [Example 122] to `Cc1ccc(-c2cc3nc(C)n(Cc4ccc(Cl)cc4)c(=O)c3cc2O[C@H]2CCN3C(=O)OC[C@@H]3C2)nn1` [Example 110], the EC50 falls from 0.844 µM to 0.288 µM (2.9-fold). The second is the more potent here.

In the case of `Cc1nc2cc(-c3cc4ncccn4n3)c(O[C@H]3CCN4C(=O)OC[C@@H]4C3)cc2c(=O)n1Cc1ccc(Cl)cc1` [Example 100], the EC50 is reported as 0.086 µM.

Same assay, conditions: infected cells, ~72 hrs, viral genome copies by qPCR normalized to PPIA; read-out: HSV1 Cell EC50

First: O=C1OC[C@@H]2C[C@@H](Oc3cc4c(=O)n(Cc5ccc(Cl)cc5)ccc4cn3)CCN12 [Example 2]
Second: COc1ncc(-c2cc3nc(C)n(Cc4ccc(Cl)cc4)c(=O)c3cc2O[C@H]2CCN3C(=O)OC[C@@H]3C2)cn1 [Example 5]
The EC50 of the first is 13-fold higher: 1.7 µM for the first, 0.131 µM for the second.

`Cc1nc2cc(CC(C)(C)O)c(O[C@H]3CCN4C(=O)OC[C@@H]4C3)cc2c(=O)n1Cc1ccc(Cl)cc1` [Example 3] and `Cc1nc2cc(-c3cnn(C(F)F)c3)c(O[C@H]3CCN4C(=O)OC[C@@H]4C3)cc2c(=O)n1Cc1ccc(Cl)cc1` [Example 4] are within 1.5-fold of each other in EC50: 0.075 µM for the first, 0.06 µM for the second.

Work on `Cc1nc2cc(-c3cc4n(n3)C(C(F)(F)F)CN(C)C4)c(O[C@H]3CCN4C(=O)OC[C@@H]4C3)cc2c(=O)n1Cc1ccc(Cl)cc1` (single isomer, unassigned) [Example 152] yielded an EC50 of 0.231 µM.

From patent US12497405B2, “Bicyclic heterocycle compounds methods of use thereof for the treatment of herpes viruses” (Merck Sharp & Dohme LLC, priority 2019, dated 2025)
